Where “and” joins values, the source holds several entries; their conditions need not be identical. Equal entries are not always repeated.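 All cell lines were grown in 96-well plates and treated with compound for 48 hours. The concentration for 50% growth inhibition is given as GI50. TGI: concentration producing complete growth inhibition.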 Bounds are passed on as bounds.

Among the test systems are EKVX NSCLC; HT29 colon; KM12 colon; LOX IMVI melanoma; NCI-H226 lung; OVCAR-5 ovarian; RXF 393 renal; SK-MEL-28 melanoma; SW-620 colon; UACC-62 melanoma.
Holding throughout (assay): NCI-60 cell line screen, 48 h

With `CCCC1C(=O)C(CC)Cc2c(OC)ccc(OC)c21` (stereo not given), the TGI in the test with EKVX NSCLC, in the test on HT29 colon, with KM12 colon, in the test on LOX IMVI melanoma, in the test with NCI-H226 lung and in the test with OVCAR-5 ovarian was more than 100 µM in each case. In addition, the TGI in the test on RXF 393 renal, in the test on SK-MEL-28 melanoma, with SW-620 colon and in the test on UACC-62 melanoma was more than 100 µM throughout.

For `C[C@@H](Oc1cc(NS(=O)(=O)N2CCC2)nc(SCc2cccc(F)c2F)n1)[C@@H](O)CO`, the GI50 in the test on EKVX NSCLC, in the test with HT29 colon, with KM12 colon, in the test on LOX IMVI melanoma, with NCI-H226 lung and in the test on OVCAR-5 ovarian was more than 100 µM throughout. The GI50 in the test on RXF 393 renal, in the test on SK-MEL-28 melanoma, in the test on SW-620 colon and with UACC-62 melanoma was more than 100 µM in each case. Besides, the TGI in the test with EKVX NSCLC, in the test with HT29 colon, in the test with KM12 colon, with LOX IMVI melanoma, in the test with NCI-H226 lung and with OVCAR-5 ovarian was more than 100 µM each time. Moreover, the TGI in the test with RXF 393 renal, with SK-MEL-28 melanoma, with SW-620 colon and in the test on UACC-62 melanoma was more than 100 µM in each case.

With `CC1OC(O[C@H]2/C=C/C=C/C=C/C=C/C=C/C=C/C=C/[C@H](C)[C@@H](O)[C@@H](C)[C@H](C)OC(=O)C[C@H](O)C[C@H](O)CC[C@@H](O)[C@H](O)C[C@H](O)C[C@]3(O)C[C@H](O)[C@@H](C(=O)O)[C@H](C2)O3)C(O)C(N)C1O` (stereo not given in full), the GI50 is 11.1 µM in the test with EKVX NSCLC; 15.2 µM in the test on LOX IMVI melanoma; 27.3 µM with OVCAR-5 ovarian; 12 µM in the test on SK-MEL-28 melanoma; 21.8 µM with UACC-62 melanoma. In addition, the TGI in the test on EKVX NSCLC was 27.8 µM; with HT29 colon, 56.4 µM; with KM12 colon it was 42.6 µM; with LOX IMVI melanoma, more than 50.7 µM; in the test on NCI-H226 lung, more than 100 µM; in the test with OVCAR-5 ovarian, 62.3 µM. The TGI is 18.2 µM in the test with RXF 393 renal, 35.2 µM in the test with SK-MEL-28 melanoma, 32.8 µM in the test on SW-620 colon and 43.9 µM in the test with UACC-62 melanoma.

Consider `CCN(CC)CCOC(=O)/C(=C/c1ccc(OC)cc1)c1cc(OC)c(OC)c(OC)c1`, for which the TGI in the test on EKVX NSCLC was more than 100 µM; in the test with HT29 colon, 18 µM; with KM12 colon, 16 µM; with LOX IMVI melanoma, 18.6 µM; in the test on NCI-H226 lung, 54.5 µM; in the test on OVCAR-5 ovarian it was 43.7 µM. In addition, the TGI in the test on RXF 393 renal is 5 µM; with SK-MEL-28 melanoma it was more than 100 µM; with SW-620 colon, more than 100 µM; in the test on UACC-62 melanoma, 24.1 µM.

`C[C@]12CC(C#N)C(=O)C(O)=C1CC[C@@H]1C2CC[C@@]2(C)C1CC[C@@H]2O` (stereo not given in full): the TGI in the test with EKVX NSCLC, in the test on HT29 colon, in the test on KM12 colon, in the test with LOX IMVI melanoma, in the test on NCI-H226 lung and in the test with OVCAR-5 ovarian was more than 100 µM throughout. The TGI was 44.4 µM with RXF 393 renal, more than 100 µM with SK-MEL-28 melanoma, more than 100 µM in the test with SW-620 colon and 83.8 µM with UACC-62 melanoma.

For `COc1cc2c(Nc3ccc(Br)cc3F)ncnc2cc1OCC1CCN(C)CC1`, the GI50 in the test with EKVX NSCLC is 0.286 µM and 0.401 µM; with HT29 colon, 2.38 µM and 3.39 µM; in the test with KM12 colon, 8.94 µM and > 10 µM; in the test with LOX IMVI melanoma it was 2.37 µM and 3.39 µM; with NCI-H226 lung it was 5.23 µM and > 10 µM; in the test on OVCAR-5 ovarian, 2.65 µM and 3.23 µM. In addition, the GI50 in the test with RXF 393 renal was 1.44 µM and 1.29 µM; with SK-MEL-28 melanoma, 1.68 µM and 1.78 µM; in the test with SW-620 colon, 4.69 µM and > 10 µM; with UACC-62 melanoma, 1.8 µM and 2.79 µM. In addition, the TGI with EKVX NSCLC is 10.3 µM and > 10 µM; in the test on HT29 colon, 10.8 µM and > 10 µM; in the test with KM12 colon, 21.4 µM and > 10 µM; in the test with LOX IMVI melanoma, 8.83 µM and > 10 µM; in the test on NCI-H226 lung it was 18.8 µM and > 10 µM; in the test on OVCAR-5 ovarian, 18.7 µM and > 10 µM. Further, the TGI in the test with RXF 393 renal is 4.77 µM and 8.32 µM; in the test on SK-MEL-28 melanoma it was 3.27 µM and 4.2 µM; in the test on SW-620 colon, 15.7 µM and > 10 µM; with UACC-62 melanoma, 4.03 µM and > 10 µM.

Turning to `NCC1OC(n2cnc3c(=O)[nH]c(N)nc32)C(O)C1O` (stereo not given), the TGI with EKVX NSCLC, in the test on HT29 colon, with KM12 colon, with LOX IMVI melanoma, in the test with NCI-H226 lung and in the test on OVCAR-5 ovarian was more than 100 µM in each case. The TGI with RXF 393 renal, in the test on SK-MEL-28 melanoma, in the test with SW-620 colon and in the test with UACC-62 melanoma was more than 100 µM each time.

For the compound `O=C(O[C@H]1CN[C@H](C#Cc2cc3ncnc(Nc4ccc(OCc5cccc(F)c5)c(Cl)c4)c3s2)C1)N1CCOCC1`, the GI50 is 0.6 µM in the test with EKVX NSCLC; 5.7 µM with HT29 colon; 5.07 µM in the test on KM12 colon; 7.72 µM in the test with LOX IMVI melanoma; 5.32 µM in the test with NCI-H226 lung; 10.5 µM with OVCAR-5 ovarian. Further, the GI50 with RXF 393 renal was 5.85 µM; with SK-MEL-28 melanoma it was 12.4 µM; in the test with SW-620 colon, 12.2 µM; with UACC-62 melanoma it was 13.4 µM. Further, the TGI is 24.2 µM with EKVX NSCLC; 11.4 µM in the test on HT29 colon; 11.2 µM in the test with KM12 colon; more than 25 µM in the test on LOX IMVI melanoma; 12 µM with NCI-H226 lung; more than 25 µM with OVCAR-5 ovarian. Also, the TGI is more than 16.6 µM with RXF 393 renal, more than 25 µM in the test with SK-MEL-28 melanoma, more than 25 µM with SW-620 colon and more than 25 µM with UACC-62 melanoma.

As for `N#C/C(=C/C=C/c1ccccc1)S(=O)c1ccccc1` (stereo not given), the GI50 in the test with EKVX NSCLC was 0.899 µM; in the test with HT29 colon, 0.366 µM; in the test with KM12 colon it was 0.594 µM; with LOX IMVI melanoma, 0.163 µM; in the test on NCI-H226 lung it was 1.92 µM; in the test on OVCAR-5 ovarian, 0.3 µM. The GI50 in the test with RXF 393 renal is 0.385 µM; in the test on SK-MEL-28 melanoma, 0.565 µM; in the test with SW-620 colon, 0.337 µM; in the test on UACC-62 melanoma, 0.435 µM. In addition, the TGI in the test on EKVX NSCLC worked out at 2.46 µM; with HT29 colon it was 2.17 µM; in the test on KM12 colon, 2.17 µM; with LOX IMVI melanoma it was 0.337 µM; in the test with NCI-H226 lung, 5.88 µM; with OVCAR-5 ovarian, 1.07 µM. Besides, the TGI came to 1.47 µM with RXF 393 renal, 1.96 µM in the test with SK-MEL-28 melanoma, 1.13 µM in the test on SW-620 colon and 1.89 µM in the test on UACC-62 melanoma.

The values above are taken from PubChem BioAssay (NCI).
